Results: ChEMBL document CHEMBL1201862, “PubChem BioAssay data set” (2004)
Activity calls are given as the source filed them.

Columns and labels:
[1] = biological target: Genome polyprotein (Hepatitis C virus, UniProt Q2Q167); test: HCV core protein dimerization inhibitors, dose response, biochemical, TR-FRET (AID 2159); set-up: species or system Hepacivirus hominis;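 also: blocks dimerization of HCV core protein measured by TR-FRET between tagged core106 pairs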
[2] = biological target: T1, Runt-related transcription factor 1/Core-binding factor subunit beta (Homo sapiens, UniProt Q01196+Q13951); test: inhibitors of RUNX1 Runt–CBFb-SMMHC binding, primary screen, biochemical, FRET, Cerulean-Runt, Venus-CBFb-SMMHC, uHTS (AID 1434); format: protein assay;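 also: partner is the CBFb-SMMHC leukemia fusion protein rather than wild-type CBFb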
T1 sequence (Q01196 whole entry, the tested form may be a part): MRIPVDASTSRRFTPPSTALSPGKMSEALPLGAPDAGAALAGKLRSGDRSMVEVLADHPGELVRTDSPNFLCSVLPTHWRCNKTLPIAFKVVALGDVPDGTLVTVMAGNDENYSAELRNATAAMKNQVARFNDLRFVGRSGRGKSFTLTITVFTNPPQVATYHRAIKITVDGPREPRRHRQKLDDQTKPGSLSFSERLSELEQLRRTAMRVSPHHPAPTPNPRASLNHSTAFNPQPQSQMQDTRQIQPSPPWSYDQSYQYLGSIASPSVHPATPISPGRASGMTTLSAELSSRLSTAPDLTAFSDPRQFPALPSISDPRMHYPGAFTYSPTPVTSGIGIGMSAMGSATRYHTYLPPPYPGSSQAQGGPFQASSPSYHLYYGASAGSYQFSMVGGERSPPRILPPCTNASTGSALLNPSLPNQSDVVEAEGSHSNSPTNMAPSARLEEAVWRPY
T1 sequence (Q13951 whole entry, the tested form may be a part): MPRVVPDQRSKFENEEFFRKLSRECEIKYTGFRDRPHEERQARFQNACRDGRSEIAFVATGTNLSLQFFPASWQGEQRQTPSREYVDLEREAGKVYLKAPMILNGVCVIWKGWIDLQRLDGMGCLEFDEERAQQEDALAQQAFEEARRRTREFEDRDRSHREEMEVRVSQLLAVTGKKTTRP

[3] = biological target: T1, Runt-related transcription factor 1/Core-binding factor subunit beta; test: inhibitors of RUNX1 Runt–CBFb-SMMHC binding, biochemical, TR-FRET (AID 1438); format: protein assay
[4] = Shn3 3'UTR reporter inhibitors, dose response, cell-based, Clone20 osteoblasts, firefly luciferase, cherry-picked (AID 624132); format: functional;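 also: firefly luciferase luminescence from reporter carrying the Shn3 3'UTR in osteoblasts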
[5] = cells; format: functional, cell-based; conditions: HEK-CNG
[6] = biological target: DNA damage-inducible transcript 3 protein (Mus musculus, UniProt P35639); format: functional, Cricetulus griseus
Chain of DNA damage-inducible transcript 3 protein (P35639 whole entry, the tested form may be a part): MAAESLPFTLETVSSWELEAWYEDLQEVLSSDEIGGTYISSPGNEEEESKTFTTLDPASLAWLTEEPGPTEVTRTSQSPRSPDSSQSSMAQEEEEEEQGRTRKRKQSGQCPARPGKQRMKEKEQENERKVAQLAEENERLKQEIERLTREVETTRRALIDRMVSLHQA

[7] = Fluorescence-based cell-based high throughput dose response assay for inhibitors of the interaction of nucleotide-binding oligomerization domain containing 2 (NOD2) and the receptor-interacting serine-threonine kinase 2 (RIPK2).; format: functional; conditions: Homo sapiens
[8] = control 3'UTR Renilla luciferase suppression, dose response, counter-screen for Shn3 inhibitor project, cell-based, Clone20-Shn3RL, cherry-picked (AID 624133); format: functional
[9] = HepG2 cell cytotoxicity, dose response, cytotoxicity control for Shn3 inhibitor project, CellTiter-Glo, cherry-picked (AID 624134); format: functional, cell-based
[10] = test system: CHO; test: cytotoxicity in TLR9-MyD88 CHO cells, dose response, cytotoxicity control for TLR9-MyD88 binding inhibitor project, cell-based, luminescence (AID 588339); format: functional, hamster; conditions: Cricetulus griseus;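 also: CHO cells stably coexpressing TLR9 and MyD88 fusions from primary screen; compound exposure lasted 48 hours before viability readout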
[11] = biological target: T2, Microphthalmia-associated transcription factor (Homo sapiens, UniProt O75030); test: TRPM1 promoter luciferase signal decrease, dose response, MITF inhibitor project, cell-based, SK-MEL-5, cherry-picked, set 3 (AID 493073); format: functional
T2 sequence (O75030 whole entry): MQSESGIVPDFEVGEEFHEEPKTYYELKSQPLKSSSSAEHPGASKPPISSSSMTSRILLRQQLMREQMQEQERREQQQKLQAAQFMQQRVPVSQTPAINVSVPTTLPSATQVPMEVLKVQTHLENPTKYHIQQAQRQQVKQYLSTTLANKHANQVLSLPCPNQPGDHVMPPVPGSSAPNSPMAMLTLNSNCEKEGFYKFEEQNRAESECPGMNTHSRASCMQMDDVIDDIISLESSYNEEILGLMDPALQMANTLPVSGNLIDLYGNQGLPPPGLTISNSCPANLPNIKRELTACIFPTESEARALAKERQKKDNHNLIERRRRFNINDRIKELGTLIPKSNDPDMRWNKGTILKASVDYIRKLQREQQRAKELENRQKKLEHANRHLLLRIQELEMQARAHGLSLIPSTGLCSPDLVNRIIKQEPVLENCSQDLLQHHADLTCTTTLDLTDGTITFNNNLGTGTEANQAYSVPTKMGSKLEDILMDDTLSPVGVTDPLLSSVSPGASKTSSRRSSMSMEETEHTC

[12] = biological target: T3, Beta Lactamase (Pseudomonas aeruginosa, UniProt Q932Y6); test: beta-lactamase reporter inhibitor potency, dose response, artefact control for NOD2-RIPK2 interaction inhibitor project, BLA reporter cells, FRET fluorescence (AID 651552); format: functional, cell-based
T3 sequence (Q932Y6 whole entry): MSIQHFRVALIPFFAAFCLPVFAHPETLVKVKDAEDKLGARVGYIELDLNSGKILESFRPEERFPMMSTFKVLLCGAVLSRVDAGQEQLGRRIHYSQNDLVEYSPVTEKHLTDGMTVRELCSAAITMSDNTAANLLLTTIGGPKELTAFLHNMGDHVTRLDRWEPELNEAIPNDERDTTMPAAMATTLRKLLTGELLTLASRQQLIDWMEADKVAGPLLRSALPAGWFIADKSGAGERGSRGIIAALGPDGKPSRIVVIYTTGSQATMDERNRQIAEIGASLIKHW

[13] = biological target: T4, Galanin receptor type 3 (Homo sapiens, UniProt O60755); test: Fluorescence-based cell-based primary high throughput dose response assay to identify antagonists of the Galanin Receptor 3 (GalR3).; format: functional
T4 sequence (O60755 whole entry): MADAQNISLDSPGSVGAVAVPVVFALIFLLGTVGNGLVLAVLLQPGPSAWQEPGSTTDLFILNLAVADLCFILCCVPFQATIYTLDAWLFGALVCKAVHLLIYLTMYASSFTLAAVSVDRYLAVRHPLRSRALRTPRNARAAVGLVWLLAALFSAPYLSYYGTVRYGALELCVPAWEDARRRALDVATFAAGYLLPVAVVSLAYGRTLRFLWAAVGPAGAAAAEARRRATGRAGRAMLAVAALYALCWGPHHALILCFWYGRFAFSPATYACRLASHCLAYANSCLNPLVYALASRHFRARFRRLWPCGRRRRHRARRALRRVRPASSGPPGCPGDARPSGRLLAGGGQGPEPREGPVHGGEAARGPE

[14] = biological target: T3, Beta Lactamase; test: beta-lactamase reporter inhibitor potency, dose response, artefact control for TLR9-MyD88 binding inhibitor project, BLA reporter cells, FRET fluorescence (AID 588341); format: cell-based;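 also: cell based assay in CHO-K1 cells stably expressing beta-lactamase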
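For EC50 in this document: target is galanin receptor GalR3 read with a cAMP biosensor in HEK293 cells.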

Chain of Genome polyprotein (Q2Q167 whole entry, the tested form may be a part): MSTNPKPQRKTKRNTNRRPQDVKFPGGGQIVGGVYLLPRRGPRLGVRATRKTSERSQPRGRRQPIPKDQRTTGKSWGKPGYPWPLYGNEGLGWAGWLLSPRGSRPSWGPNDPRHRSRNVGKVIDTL

SMILES	IC50 [1]	IC50 [2]	IC50 [3]	AC50 [4]	EC50 [5]	Absolute IC50 (CHOP) [6]	IC50 [7]	AC50 [8]	AC50 [9]	IC50 [10]	AC50 [11]	IC50 [12]	IC50 [13]	IC50 [14]
Cc1cccc(C(=O)/N=c2\c(C#N)cc3c(=O)n4cccc(C)c4nc3n2Cc2ccco2)c1	> 49.8 µM (not active)	0.429 µM (active)	6.54 µM (active)											
CS(=O)(=O)c1nc(-c2ccc(F)cc2)cc(C(F)(F)F)n1				2.72 µM (active)	> 29.9 µM (inactive)	10 µM	2.79 µM (active)	7.39 µM (active)	24.5 µM (active)	3.27 µM (active)	7.2 µM (active)	17.7 µM (inactive)	> 29.9 µM (inactive)	27.4 µM (inactive)
